Experimental data as given in US11369651B2, “Uses of FU-LING (Poria cocos) extract and tumulosic acid in protecting muscles” (SINPHAR PHARMACEUTICAL CO., LTD. (DONGSHAN, TAIWAN), priority 2016, dated 2022).

What was measured:
Format in all cases: cell-based, mice
[1] = test system: myogenin; experiment: Expression of myoblast differentiation marker myogenin in C2C12 cells by Western blot; conditions: for Expression level of myogenin (%): 4 days, control group = 100%; for increase of the expression level of myogenin protein: vs control
From the text: (§1) As described above, myogenin and MyHC can be used as markers for myoblast differentiation. To investigate whether FU-LING extract and tumulosic acid have the effect of promoting differentiation of myoblasts, tumulosic acid (purchased from Sinphar pharmaceutical co. ltd), FU-LING meat extract obtained from Example 1 (1-4), FU-LING epidermis extract obtained from Example 1 (1-6), and the FU-LING fermentation extract obtained from Example 1 (1-7) were formulated into the following: (1) tumulosic acid solution, (2) FU-LING meat extract solution, (3) FU-LING epidermis extract solution, and (4) FU-LING fermentation extract solution, respectively, in dimethyl sulfoxide (DMSO; purchased from Sigma Company).
(§2) After 80% confluence of cells was attained in H-DMEM medium, cells were separated into fourteen groups and treated as follows: • (1) Control group: The medium was replaced by a differentiation medium supplemented with 2% horse serum, and the cells were cultured for 4 days. • (2) Meat extract group (3 groups): The medium was replaced by a differentiation medium supplemented with 2% horse serum, and FU-LING meat extract solution was then added into the medium (the final concentration was 0.1, 1 or 10 ng/mL) to perform a co-treatment for 4 days. • (3) Epidermis extract group (4 groups): The medium was replaced by a differentiation medium supplemented with 2% horse serum, and FU-LING epidermis extract solution was then added into the medium (the final concentration was 0.01, 0.1, 0.5 or 1 ng/mL) to perform a co-treatment for 4 days. • (4) Fermentation extract group (3 groups): The medium was replaced by a differentiation medium supplemented with 2% horse serum, and FU-LING fermentation extract solution was then added into the medium (the final concentration was 0.2, 2, or 20 ng/mL) to perform a co-treatment for 4 days. • (5) Tumulosic acid group (4 groups): The medium was replaced by a differentiation medium supplemented with 2% horse serum, and tumulosic acid solution was then added into the medium (the final concentration was 0.01, 0.1, 1 or 10 ng/mL) to perform a co-treatment for 4 days.
(§3) After that, cell proteins in each group were extracted. Thereafter, the expression levels of myoblast differentiation markers (myogenin and MyHC) were detected by Western blot. Finally, the control group served as a basis (e.g., the expression level of the control group was 100%) for calculating the relative expression levels of myogenin and MyHC proteins in each group.

[2] = test system: MyHC; experiment: Expression of myoblast differentiation marker MyHC in C2C12 cells by Western blot; conditions: for Expression level of MyHC (%): 4 days, control group = 100%
From the text: as §1, §2, §3

[3] = test system: C2C12 cells; experiment: TNF-α induced muscle cell injury model, intracellular ROS; conditions: 4 days in differentiation medium, relative to 0 ng/mL
Procedure: Firstly, C2C12 cells (i.e., myoblasts of mice, purchased from ATCC) were cultured in H-DMEM medium (purchased from Sigma company) until 80% confluence was attained (i.e., the mixed cell monolayer comprised 80% of the area). Thereafter, the cells were separated into four groups, and the mediums of all the groups were replaced by differentiation mediums supplemented with 2% horse serum. TNF-α (purchased from Sigma company) was then added into those mediums to provide final concentrations of 0, 2, 5 or 10 ng/mL respectively. After being co-treated with the differentiation medium and TNF-α for 4 days, the intracellular reactive oxidative stress (ROS) of the C2C12 cells was measured to serve as the index for model evaluation. Accordingly, a TNF-α induced muscle cell injury model was established. Finally, the group that was not treated with TNF-α (i.e., the concentration of TNF-α was 0 ng/mL) served as a basis for calculating the relative intracellular ROS of the other groups. The results are shown in FIG. 1 (all the data are presented as average values±SEM, n=6, analyzed with a t-test, ***p<0.001).

## C=C(CC[C@@H](C(=O)O)[C@H]1[C@H](O)C[C@@]2(C)C3=C(CC[C@]12C)[C@@]1(C)CC[C@H](O)C(C)(C)[C@@H]1CC3)C(C)C [Tumulosic acid, tumulosic acid]
[1]; 0.01 ng/mL
  Expression level of myogenin (%): 130%
[1]; 0.1 ng/mL
  Expression level of myogenin (%): 130%
[1]; 1 ng/mL
  Expression level of myogenin (%): 160%
[1]; 10 ng/mL
  Expression level of myogenin (%): 490%
[1]; 10 μg/ml
  increase of the expression level of myogenin protein: about 390%
[1]; 0.01-0.1 μg/ml
  increase of the expression level of myogenin protein: about 30%
[2]; 0.01 ng/mL
  Expression level of MyHC (%): 90%
[2]; 0.1 ng/mL
  Expression level of MyHC (%): 80%
[2]; 1 ng/mL
  Expression level of MyHC (%): 70%
[2]; 10 ng/mL
  Expression level of MyHC (%): 180%
[2]; 10 μg/ml, vs control
  increase of the expression level of MyHC protein: about 80%

## TNF-α
[3]; 5 ng/mL TNF-α
  intracellular reactive oxidative stress (ROS) of C2C12 cells: increased
[3]; 10 ng/mL TNF-α
  intracellular reactive oxidative stress (ROS) of C2C12 cells: significantly increased
